Source: patent publication US5386019A, “Synthesis of inhibitors of calmodulin-mediated enzymes including KS-501, KS-502 and their enantiomers” (Yale University, priority 1992, dated 1995)

Key:
cAMP dependent kinase = assay: Synapsin I phosphorylation by PKA, cAMP (Table I C); format: biochemical
Text: (§1) KS-501 & ent-KS-501 as Inhibitors of Ca++/Calmodulin PKC PKA
(§2) The results represent the mean of 3 experiments
Site 1 is phosphorylated by both CaM KI and cAMP dependent kinase.
reaction mix. And in the reaction of PKA, EGTA is included.

PKC = assay: Synapsin I phosphorylation by PKC, Ca++/PSD (Table I B); format: biochemical
Text: as §1, §2
Therefore in the reaction of CaMK or PKC, PKA inhibitor is included in th
In vitro PKC is able to phosphorylate Synapsin I at all 3 serine sites.

[1] = system: Ca2+/CaM-sensitive phosphodiesterase; assay: Inhibition of Ca2+/CaM-sensitive phosphodiesterase (FIGS. 1-4); format: biochemical; settings: for Inhibitory effects on CaM-mediated enzyme activity: enantiomers compared with KS-501 and KS-502
Text: FIG. 1 is a graph showing the effect of various concentrations of KS-501 on the activity of Ca^2+ /CaM-dependent phosphodiesterase.
FIG. 2 is a graph showing the effect of various concentrations of ent-KS-501 on the activity of Ca^2+ /CaM-dependent phosphodiesterase.
FIG. 3 is a graph showing the effect of various concentrations of KS-502 on the activity of Ca^2+ /CaM-dependent phosphodiesterase.
FIG. 4 is a graph showing the effect of various concentrations of ent-KS-502 on the activity of Ca^2+ /CaM-dependent phosphodiesterase.

CaM KI = assay: Synapsin I phosphorylation at site 1 by Ca++/Calmodulin kinase (Table I A); format: biochemical
[2] = system: Ca++/CaM dependent Kinase II; assay: Synapsin I phosphorylation at sites 2,3 by Ca++/Calmodulin kinase (Table I A); format: biochemical; settings: for Inhibitory activity against CaM-dependent kinases compared with cAMP-dependent kinase or protein kinase C: from data in Table I
protein kinase C = settings: background; cited from earlier work
CaM-PDE = settings: background, cited from earlier work; for Concentration range inhibiting CaM-dependent activities of CaM-PDE: Nakanishi et al.
[3] = Basal, compound 10 μM, basal control 0.007
[4] = Basal, compound 10 μM, basal control 0.028
[5] = Basal, compound 40 μM, basal control 0.007
[6] = Basal, compound 40 μM, basal control 0.028
[7] = cAMP, compound 10 μM, cAMP 1 μM control 0.008
[8] = cAMP, compound 10 μM, cAMP 1 μM control 0.041
[9] = cAMP, compound 40 μM, cAMP 1 μM control 0.008
[10] = cAMP, compound 40 μM, cAMP 1 μM control 0.041
[11] = Basal, compound 10 μM, basal control 0.016
[12] = Basal, compound 10 μM, basal control 0.018
[13] = Basal, compound 40 μM, basal control 0.016
[14] = Basal, compound 40 μM, basal control 0.018
[15] = Ca++/PSD, compound 10 μM, Ca++ PSD control 0.045
[16] = Ca++/PSD, compound 10 μM, Ca++ PSD control 0.079
[17] = Ca++/PSD, compound 40 μM, Ca++ PSD control 0.045
[18] = Ca++/PSD, compound 40 μM, Ca++ PSD control 0.079
[19] = Basal, compound 10 μM, basal control 0.022
[20] = Basal, compound 40 μM, basal control 0.022
[21] = Ca++/CaM, compound 10 μM, Ca++ CaM 3 μg control 0.049
[22] = Ca++/CaM, compound 40 μM, Ca++ CaM 3 μg control 0.049
[23] = Basal, compound 10 μM, basal control 0.016, mean of 3 experiments
[24] = Ca++/CaM, compound 10 μM, Ca++ CaM 3 μg control 0.125
[25] = Ca++/CaM, compound 40 μM, Ca++ CaM 3 μg control 0.125

Row | Structure (SMILES) | Phosphorylation of Synapsin I site 2,3 (cAMP dependent kinase; [3]) [pmole/mg protein/min] | Phosphorylation of Synapsin I site 1 (cAMP dependent kinase; [4]) [pmole/mg protein/min] | Phosphorylation of Synapsin I site 2,3 (cAMP dependent kinase; [5]) [pmole/mg protein/min] | Phosphorylation of Synapsin I site 1 (cAMP dependent kinase; [6]) [pmole/mg protein/min] | Phosphorylation of Synapsin I site 2,3 (cAMP dependent kinase; [7]) [pmole/mg protein/min] | Phosphorylation of Synapsin I site 1 (cAMP dependent kinase; [8]) [pmole/mg protein/min] | Phosphorylation of Synapsin I site 2,3 (cAMP dependent kinase; [9]) [pmole/mg protein/min] | Phosphorylation of Synapsin I site 1 (cAMP dependent kinase; [10]) [pmole/mg protein/min] | Phosphorylation of Synapsin I site 2,3 (PKC; [11]) [pmole/mg protein/min] | Phosphorylation of Synapsin I site 1 (PKC; [12]) [pmole/mg protein/min] | Phosphorylation of Synapsin I site 2,3 (PKC; [13]) [pmole/mg protein/min] | Phosphorylation of Synapsin I site 1 (PKC; [14]) [pmole/mg protein/min] | Phosphorylation of Synapsin I site 1 (PKC; [15]) [pmole/mg protein/min] | Phosphorylation of Synapsin I site 2,3 (PKC; [16]) [pmole/mg protein/min] | Phosphorylation of Synapsin I site 1 (PKC; [17]) [pmole/mg protein/min] | Phosphorylation of Synapsin I site 2,3 (PKC; [18]) [pmole/mg protein/min] | Concentration range inhibitory of Ca2+/CaM-sensitive phosphodiesterase [1] | Inhibitory effects on CaM-mediated enzyme activity [1] | Phosphorylation of Synapsin I site 1 (CaM KI; [19]) [pmole/mg protein/min] | Phosphorylation of Synapsin I site 1 (CaM KI; [20]) [pmole/mg protein/min] | also measured
1 | CCCCCCCc1cc(O)cc(OC(=O)c2c(CCCCCCC)cc(O)cc2O[C@H]2O[C@H]([C@@H](O)CO)[C@@H](O)[C@@H]2O)c1 [ent-KS-501] | 0.006 | 0.025 | 0.010 | 0.017 | 0.009 | 0.049 | 0.008 | 0.03 | 0.015 | 0.018 | 0.014 | 0.013 | 0.047 | 0.067 | 0.01 | 0.02 | 1 to 2 µM | possess inhibitory activity | 0.023 | 0.019 | Phosphorylation of Synapsin I site 1 (CaM KI; [21]): 0.043 pmole/mg protein/min; Phosphorylation of Synapsin I site 1 (CaM KI; [22]): 0.012 pmole/mg protein/min; Concentration range inhibitory of CaM-sensitive Kinase II [2]: 10 to 40 µM; Phosphorylation of Synapsin I site 2,3 [2, 23]: 0.018 pmole/mg protein/min; Phosphorylation of Synapsin I site 2,3 [2, 13]: 0.018 pmole/mg protein/min; Phosphorylation of Synapsin I site 2,3 [2, 24]: 0.076 pmole/mg protein/min; Phosphorylation of Synapsin I site 2,3 [2, 25]: 0.021 pmole/mg protein/min; Inhibitory activity against CaM-dependent kinases compared with cAMP-dependent kinase or protein kinase C [2]: more inhibitory activity against CaM-dependent kinases than against cAMP-dependent kinase or protein kinase C
2 | CCCCCCCc1cc(O)cc(OC(=O)c2c(CCCCCCC)cc(O)cc2O[C@@H]2O[C@@H]([C@H](O)CO)[C@H](O)[C@H]2O)c1 [KS-501] | 0.008 | 0.033 | 0.007 | 0.015 | 0.008 | 0.049 | 0.009 | 0.025 | 0.015 | 0.020 | 0.015 | 0.016 | 0.041 | 0.061 | 0.017 | 0.030 | 1 to 2 µM |  | 0.025 | 0.017 | Effect on protein kinase C (protein kinase C): no effect; Phosphorylation of Synapsin I site 1 (CaM KI; [21]): 0.054 pmole/mg protein/min; Phosphorylation of Synapsin I site 1 (CaM KI; [22]): 0.011 pmole/mg protein/min; Concentration range inhibiting CaM-dependent activities of CaM-PDE (CaM-PDE): 1 to 5 µM; Concentrations required to inhibit CaM-independent activities (CaM-PDE): Much higher concentrations; Concentration range inhibitory of CaM-sensitive Kinase II [2]: 10 to 40 µM; Phosphorylation of Synapsin I site 2,3 [2, 23]: 0.017 pmole/mg protein/min; Phosphorylation of Synapsin I site 2,3 [2, 13]: 0.015 pmole/mg protein/min; Phosphorylation of Synapsin I site 2,3 [2, 24]: 0.087 pmole/mg protein/min; Phosphorylation of Synapsin I site 2,3 [2, 25]: 0.012 pmole/mg protein/min; Inhibitory activity against CaM-dependent kinases compared with cAMP-dependent kinase or protein kinase C [2]: more inhibitory activity against CaM-dependent kinases than against cAMP-dependent kinase or protein kinase C
3 | CCCCCCCc1cc(OC(=O)c2c(CCCCCCC)cc(O)cc2O[C@H]2O[C@H]([C@@H](O)CO)[C@@H](O)[C@@H]2O)cc(O)c1C(=O)O [ent-KS-502] |  |  |  |  |  |  |  |  |  |  |  |  |  |  |  |  | approximately 10 μM | possess inhibitory activity |  |  | 
4 | CCCCCCCc1cc(OC(=O)c2c(CCCCCCC)cc(O)cc2O[C@@H]2O[C@@H]([C@H](O)CO)[C@H](O)[C@H]2O)cc(O)c1C(=O)O [KS-502] |  |  |  |  |  |  |  |  |  |  |  |  |  |  |  |  | approximately 10 μM |  |  |  | Effect on protein kinase C (protein kinase C): no effect; Concentration range inhibiting CaM-dependent activities of CaM-PDE (CaM-PDE): 1 to 5 µM; Concentrations required to inhibit CaM-independent activities (CaM-PDE): Much higher concentrations
